The values that follow come from patent publication US9102712B2, “Dendrimeric peptides, pharmaceutical compositions and methods of using the same” (New York University, priority 2010, dated 2015).

Assay type in all cases: cell-based
In one series the test system is fresh sheep RBC. To be noted: red cells of sheep, 1 h. The protocol:
Hemolytic activity of dendrimeric compounds were assessed on fresh sheep RBC (Fitzgerald, Inc., MA). Dendrimer concentrations corresponding to 50% hemolysis were used as hemolytic dose (HD50) determined from dose-response curve. The fresh sheep RBC was washed with PBS buffer (thrice) and aliquots of cell suspension were mixed in eppendorf tubes with varying volumes of stocks and buffer for a total volume of 400 μL. These tubes were incubated at 37° C. for 1 hr, and then spun down at 3,000 rpm for 5 mins. The resulting supernatant was trasferred to a 96-well plate and the absorbances at 540 nm were measured in an Absorbance Microplate Reader BIO-TEK ELX800. Zero hemolysis and 100% hemolysis controls were obtained by incubating the cells with buffer and 1% Triton X-100, respectively. Hemolytic index (HI) was defined as HI=HD50/IC50 (Table 1 and 3).

The test system of the next series is S. aureus. To be noted: 18 h. The protocol: (§1) The antibacterial activity of each dendrimer peptide was tested by following standard broth microdilution protocols recommended by the National Committee for Clinical Laboratory Standard (NCCLS 2004). Antibacterial testing was carried out on gram-negative bacteria E. coli (D31) and gram-positive bacteria S. aureus in liquid media Mueller Hinton (MH) Brooth according to literature procedures. Dendrimers were dissolved in PBS buffer (high salt, 150 mM NaCl; low salt, 75 mM NaCl), pH 7.4 to make series of stocks of 2-fold dilution. Cultures were grown overnight on Mueller Hinton (MH) agar plates, and 3 to 5 uniform colonies of each organism were transferred with an inoculating loop to test tubes containing MH broth, and incubated at 37° C. overnight, then diluted until the turbidity matched that of the 0.5 McFarland standard (approximately 1.5×10^8 cells/mL). The resulting solutions were further diluted to give approximately 2×10^4-2×10^5 CFU/mL. 100 μL of the bacterial inoculums were incubated in 96-well plates with varying volumes of stock solution and PBS buffer to bring the total volume to 200 μL. Solutions containing the same volumes of PBS buffer and MH Broth, with and without bacteria were used as controls. After these plates were incubated with shaking for 18 hrs at 37° C. to ensure the cultures had reached log phase growth, the absorbance readings were recorded at a wavelength of 600 nm using a Absorbance Microplate Reader BIO-TEK ELX800. The 18-hour absorbance data were used to calculate the percent inhibition for each test condition. All assays were carried out in triplicate. The experimental data were fitted to sigmoidal dose-response curves using GraphPad Prism (GraphPad Software Inc., San Diego, Calif., USA).

The next series deals with E. coli (D31). Description: Antibacterial broth microdilution, E. coli. To be noted: 50% inhibition of growth, MH broth, 18 hrs at 37° C., Table 1. How it is done:
as §1

As to `N=C(N)NCCC[C@H](N)C(=O)N[C@@H](Cc1c[nH]c2ccccc12)C(=O)NCCN(CCNC(=O)[C@H](Cc1c[nH]c2ccccc12)NC(=O)[C@@H](N)CCCNC(=N)N)CCNC(=O)[C@H](Cc1c[nH]c2ccccc12)NC(=O)[C@@H](N)CCCNC(=N)N` [TAEA-(WR)3, TAEA-(WR—NH2)3], in the series on fresh sheep RBC, the “Hemolysis HD50” value worked out at 3073 µg/mL. Moreover, the “S. Aureus IC50” value with S. aureus turned out to be 0.97 ± 0.02 µg/mL. Besides, the “E. Coli IC50” value in the series with E. coli (D31) came to 2.07 ± 0.22 µg/mL.
